For assay [1], the target named is Human immunodeficiency virus type 1 protease (Human immunodeficiency virus 1) (UniProt Q72874). The assay is described as follows: The compound was evaluated for irreversible inhibition of HIV-1 protease at 20 uM.
Assay [2] shares this target. The assay is described as follows: The compound was evaluated for irreversible inhibition of HIV-1 protease at pH 6.5.
For assay [3] the target is unchanged. Briefly: Maximal inactivation rate towards HIV-1 protease was evaluated.
Assay [4] in a line: Bimolecular rate constant is the ratio of Vinact/Kinact.
The target of assay [5] is Human immunodeficiency virus type 1 protease (Human immunodeficiency virus 1) (UniProt Q72874). Briefly: The compound was evaluated for irreversible inhibition of HIV-1 protease.

Usually inhibition stands for how much of the control response was suppressed. Higher therefore signals a response far below the control.

The structures appear in SMILES notation.

As for `COC(=O)C(NC(=O)[C@@H]1O[C@@H]1COc1ccc([N+](=O)[O-])cc1)C(C)C` (some centres not stated), in assay [1], the inhibition came to 22%.

For `CC(C)C(NC(=O)OCc1ccccc1)C(=O)OC[C@@H]1O[C@@H]1COc1ccc([N+](=O)[O-])cc1` (some centres not stated), in assay [2], the K inact amounted to 1.8 µM. The compound further registered a Vinact in assay [3] of 0.26 min⁻¹. The compound also returned an inhibition in assay [1] of 88%. The Ratio in assay [4] came to 140000 M⁻¹ min⁻¹.

As for `CC(C)C[C@@H]1O[C@@H]1[C@H](Cc1ccccc1)NC(=O)[C@H](C)NC(=O)[C@H](Cc1ccccc1)NC(=O)OCc1ccccc1`, the K inact in assay [5] was 20 µM.

Consider `CC(C)C(NC(=O)OCc1ccccc1)C(=O)N[C@@H](Cc1ccccc1)[C@@H]1O[C@@H]1[C@H](Cc1ccccc1)NC(=O)C(NC(=O)OCc1ccccc1)C(C)C` (some centres not stated), for which, in assay [5], the K inact stood at 0.075 µM.

`COC(=O)C(CC(C)C)NC(=O)[C@@H]1O[C@@H]1CCc1ccccc1` (some centres not stated) gave an inhibition in assay [1] of 19%.

Take `O=C(OCC1c2ccccc2-c2ccccc21)N1CCC2OC2C1` (configuration not stated): the K inact in assay [5] amounted to 65 µM.

`COC(=O)C(CC(C)C)NC(=O)[C@@H]1O[C@@H]1COc1ccc([N+](=O)[O-])cc1` (some centres not stated) returned an inhibition in assay [1] of 30%.

For `CC(C)C(NC(=O)OCc1ccccc1)C(=O)NC(C(=O)OC[C@@H]1O[C@@H]1COc1ccc([N+](=O)[O-])cc1)C(C)C` (some centres not stated), the inhibition in assay [1] worked out at 25%.

Regarding `O=[N+]([O-])c1ccc(OCC2CO2)cc1` (configuration not stated), the K inact in assay [5] turned out to be 11000 µM.

The record behind these values is ChEMBL document CHEMBL1149993, “Simple cis-epoxide-based inhibitors of HIV-1 protease” (Bioorg Med Chem Lett, 1997).
